Like-named read-outs stand apart in the source and are kept apart here.
Key:
SU-DHL-8 cells [1] = assay: cells; conditions: Homo sapiens, SU-DHL-8, 72 h, read-out: EC50 in picoM, SUDHL8
Ramos [2] = tested on: Ramos
Ramos [3] = assay: cells; conditions: Homo sapiens, 72 h, read-out: EC50 in picoM, Ramos
SU-DHL-8 cells [4] = conditions: agents and agent-linker intermediates; value in parentheses; 3 days incubation
[5] = tested on: HL60, U937, MV411, Hut78, H929, and RAMOS; assay: In vitro cytotoxic activity on six human blood cancer cell types, overall statements; assay type: cell-based; conditions: all cell lines tested except RAMOS
Description: Agent loading was determined to be about 4.

Row | Structure (SMILES) | EC50 (SU-DHL-8 cells [1]) [nM] | % viab., Ramos (Ramos [2]; human, 3 days) [%] | EC50 (Ramos [3]) [nM] | % viab., SUDHL8 (SU-DHL-8 cells [4]) [%] | % viab., Ramos (Ramos [2]; agents and agent-linker intermediates, value in parentheses, 3 days incubation) [%] | effect of ATRA alone on cell growth [5]
1 | C[C@]12CC[C@H](OC[C@@H]3OC[C@H](N)C(O)C3O)CC1CCC1C2CC[C@]2(C)[C@@H](C3=CC(=O)OC3)CC[C@]12O (some centres unmarked) [CEN-319] | 8.4 | 0 | 5.8 | – | – | –
2 | C[C@]12CC[C@H](OC(=O)NCCCN3CCN(CCCN)CC3)CC1CCC1C2CC[C@]2(C)[C@@H](c3ccc(=O)oc3)CC[C@]12O (some centres unmarked) [CEN-371] | 11 | – | 7.81 | 0 | 0 | –
3 | C[C@]12CC[C@H](O)C[C@H]1CC[C@@H]1[C@@H]2CC[C@]2(C)[C@@H](c3ccc(=O)oc3)CC[C@]12O [Bufalin, reference compound] | 16 | – | 7.3 | – | – | –
4 | CN(CCCN)CCCNC(=O)O[C@H]1CC[C@@]2(C)C(CCC3C2CC[C@]2(C)C(c4ccc(=O)oc4)CC[C@]32O)C1 (stereo in doubt) [CEN-372, 5-[(1S,2S,5S,7R,10R,11S,14S,15R)-5-{3-[N-Methyl(3-aminopropyl)amino]propylaminocarbonyloxy}-11-hydroxy-2,15-dimethyltetracyclo[8.7.0.02,7.011,15]heptadec-14-yl]-2-pyranone] | 4.4 | – | 3.6 | – | – | –
5 | C[C@]12CC[C@H](OC(=O)NCCCN3CCN(CCCN)CC3)C[C@H]1CC[C@@H]1[C@@H]2CC[C@]2(C)[C@@H](C3=CC(=O)OC3)CC[C@]12O | > 50 | – | > 50 | – | – | –
6 | C[C@]12CC[C@H](O)C[C@H]1CC[C@@H]1[C@@H]2CC[C@]2(C)[C@@H](C3=CC(=O)OC3)CC[C@]12O [Digitoxigenin, reference compound] | > 50 | – | > 50 | – | – | –
7 | CC1=C(/C=C/C(C)=C/C=C/C(C)=C/C(=O)O)C(C)(C)CCC1 [ATRA, all-trans-retinoic acid] | – | – | – | – | – | slowed cell growth
8 | C[C@]12CCC(OC[C@@H]3OC[C@H](N)C(O)C3O)C=C1CCC1C2CC[C@]2(C)[C@@H](c3ccc(=O)oc3)CC[C@]12O (some centres unmarked) [CEN09-106] | 2.07 | – | 1.9 | 0 | – | –
9 | C[C@]12CC[C@H](O)C=C1CC[C@@H]1[C@@H]2CC[C@]2(C)[C@@H](c3ccc(=O)oc3)CC[C@]12O [Scillarenin, reference compound] | 18 | – | 17 | – | – | –
10 | C[C@]12CC[C@H](OC(=O)NCCCNCCCN)CC1CCC1C2CC[C@]2(C)C(c3ccc(=O)oc3)CC[C@]12O (stereo in doubt) [CEN-373, 5-{(1S,2S,5S,7R,10R,11S,14S,15R)-5-[3-(3-Aminopropylamino)propylaminocarbonyloxy]-11-hydroxy-2,15-dimethyltetracyclo[8.7.0.02,7.011,15]heptadec-14-yl}-2-pyranone] | 5.9 | – | 4 | – | – | –
